Where two headings read alike, the source gives them in different places.
Tests used:
FLT3 = molecular target: T1, FLT3 (Homo sapiens, UniProt P36888); assay: Competition binding assay, FLT3 Kd
T1 construct: made in house
T1 sequence (P36888 27-993): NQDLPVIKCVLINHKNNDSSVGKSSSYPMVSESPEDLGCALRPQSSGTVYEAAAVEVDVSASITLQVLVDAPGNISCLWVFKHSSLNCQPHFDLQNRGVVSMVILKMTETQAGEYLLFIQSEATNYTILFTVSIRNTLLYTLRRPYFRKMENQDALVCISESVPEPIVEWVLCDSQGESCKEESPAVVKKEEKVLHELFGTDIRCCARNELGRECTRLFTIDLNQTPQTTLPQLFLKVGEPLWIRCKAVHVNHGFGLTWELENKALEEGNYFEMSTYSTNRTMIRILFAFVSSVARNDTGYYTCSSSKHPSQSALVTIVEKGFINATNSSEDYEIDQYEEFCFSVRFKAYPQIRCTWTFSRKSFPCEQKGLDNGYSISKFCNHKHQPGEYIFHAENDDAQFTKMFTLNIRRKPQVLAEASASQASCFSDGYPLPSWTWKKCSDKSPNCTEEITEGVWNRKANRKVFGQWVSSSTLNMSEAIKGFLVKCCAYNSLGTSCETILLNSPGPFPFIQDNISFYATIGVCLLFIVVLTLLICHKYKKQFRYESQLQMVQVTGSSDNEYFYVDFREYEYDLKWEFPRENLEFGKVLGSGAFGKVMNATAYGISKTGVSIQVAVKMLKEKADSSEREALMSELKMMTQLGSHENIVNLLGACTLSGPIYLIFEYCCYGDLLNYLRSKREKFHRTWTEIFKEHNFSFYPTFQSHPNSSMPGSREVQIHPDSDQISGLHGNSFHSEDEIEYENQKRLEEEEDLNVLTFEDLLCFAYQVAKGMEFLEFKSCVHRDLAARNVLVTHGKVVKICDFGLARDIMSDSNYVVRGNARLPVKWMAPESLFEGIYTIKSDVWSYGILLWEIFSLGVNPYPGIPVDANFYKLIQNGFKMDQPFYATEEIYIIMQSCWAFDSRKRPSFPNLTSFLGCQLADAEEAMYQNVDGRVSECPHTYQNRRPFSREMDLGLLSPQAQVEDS
In short: (§1)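 Compound displacement of kinase from bead-immobilized ligand is measured by qPCR after 1 h equilibration at room temperature. Kinases are T7 phage fusions or DNA-tagged HEK-293 products.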

CSF1R [1] = molecular target: T2, CSF1R (Homo sapiens, UniProt P07333); assay: Competition binding assay, CSF1R Kd; design: made in house
T2 sequence (P07333 20-972): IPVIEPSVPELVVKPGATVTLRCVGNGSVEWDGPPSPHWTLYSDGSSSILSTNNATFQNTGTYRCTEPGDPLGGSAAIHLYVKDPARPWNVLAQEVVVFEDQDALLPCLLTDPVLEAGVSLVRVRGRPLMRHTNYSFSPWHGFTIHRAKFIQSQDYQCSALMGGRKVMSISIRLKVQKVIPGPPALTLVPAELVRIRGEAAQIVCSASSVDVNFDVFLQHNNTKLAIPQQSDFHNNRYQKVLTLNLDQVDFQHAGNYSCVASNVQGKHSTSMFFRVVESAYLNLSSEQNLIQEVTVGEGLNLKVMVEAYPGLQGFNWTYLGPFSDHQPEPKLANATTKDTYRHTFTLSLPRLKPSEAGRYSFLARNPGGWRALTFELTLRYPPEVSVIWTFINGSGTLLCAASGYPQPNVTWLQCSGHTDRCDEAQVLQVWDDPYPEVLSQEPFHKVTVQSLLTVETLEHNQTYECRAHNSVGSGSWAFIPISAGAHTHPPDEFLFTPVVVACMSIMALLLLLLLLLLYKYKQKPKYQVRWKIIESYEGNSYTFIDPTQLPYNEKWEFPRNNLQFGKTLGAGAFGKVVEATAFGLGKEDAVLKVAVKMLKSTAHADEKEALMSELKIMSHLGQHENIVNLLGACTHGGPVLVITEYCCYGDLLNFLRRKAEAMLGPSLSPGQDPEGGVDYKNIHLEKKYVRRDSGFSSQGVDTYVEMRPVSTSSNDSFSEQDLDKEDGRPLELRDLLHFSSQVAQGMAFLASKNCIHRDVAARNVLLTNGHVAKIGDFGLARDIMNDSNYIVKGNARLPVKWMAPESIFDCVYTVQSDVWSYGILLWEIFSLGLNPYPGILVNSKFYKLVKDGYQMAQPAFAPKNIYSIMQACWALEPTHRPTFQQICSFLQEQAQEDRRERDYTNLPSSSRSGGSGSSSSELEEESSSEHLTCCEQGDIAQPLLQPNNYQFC
In short: as §1

M-NFS-60 cells = assay: M-NFS-60 cell proliferation assay (Alamar Blue); assay type: cell-based, mouse; details: Mus musculus, read-out: CSF1R M-NFS-60 CTB:IC50
In short: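 Mouse M-NFS-60 cells growing on 20 ng/mL M-CSF in RPMI/10% FBS were exposed to compounds (9 half-log concentrations, 0.5% DMSO) for 72 h at 37 °C. Viability read by Alamar Blue fluorescence (ex 560/em 590 nm, 3 h). IC50 = 50% proliferation inhibition versus control, mean of duplicates.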

KIT = molecular target: T3, KIT (Homo sapiens, UniProt P10721); assay: Competition binding assay, KIT Kd
T3 construct: made in house
T3 sequence (P10721 26-976): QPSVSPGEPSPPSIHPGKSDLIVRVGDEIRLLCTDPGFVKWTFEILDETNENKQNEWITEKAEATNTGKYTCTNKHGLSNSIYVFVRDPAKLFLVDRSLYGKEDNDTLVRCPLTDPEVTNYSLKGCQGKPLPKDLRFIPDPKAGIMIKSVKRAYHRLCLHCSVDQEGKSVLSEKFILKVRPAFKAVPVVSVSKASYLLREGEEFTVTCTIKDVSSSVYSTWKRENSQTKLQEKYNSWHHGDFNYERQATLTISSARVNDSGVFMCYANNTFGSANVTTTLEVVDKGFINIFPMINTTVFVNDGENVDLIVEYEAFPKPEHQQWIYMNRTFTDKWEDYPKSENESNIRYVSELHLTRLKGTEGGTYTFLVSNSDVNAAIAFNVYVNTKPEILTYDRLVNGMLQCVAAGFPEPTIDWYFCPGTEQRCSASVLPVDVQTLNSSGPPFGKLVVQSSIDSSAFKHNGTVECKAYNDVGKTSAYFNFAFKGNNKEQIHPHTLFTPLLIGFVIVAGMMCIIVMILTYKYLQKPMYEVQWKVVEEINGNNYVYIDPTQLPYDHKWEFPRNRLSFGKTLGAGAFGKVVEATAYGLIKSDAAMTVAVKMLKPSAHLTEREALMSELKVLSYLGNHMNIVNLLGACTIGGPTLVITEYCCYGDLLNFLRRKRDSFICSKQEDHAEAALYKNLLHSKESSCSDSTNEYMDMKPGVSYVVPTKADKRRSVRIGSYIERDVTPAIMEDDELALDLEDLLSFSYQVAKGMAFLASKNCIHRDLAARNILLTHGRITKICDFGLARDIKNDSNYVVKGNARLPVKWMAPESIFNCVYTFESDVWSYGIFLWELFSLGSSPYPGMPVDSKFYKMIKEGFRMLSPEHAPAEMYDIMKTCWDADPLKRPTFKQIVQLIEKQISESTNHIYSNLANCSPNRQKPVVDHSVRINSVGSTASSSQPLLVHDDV
In short: as §1

CSF1R [2] = molecular target: T2, CSF1R; assay: HEK293 CSF1R phosphorylation MSD assay; assay type: cell-based; design: expressed in transfected cells; host or cells: HEK293; details: read-out: HEK293 pCSF1R M-CSF MSD:IC50
In short: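 HEK293 cells expressing CSF1R-FKBP were pretreated 2 h at 37° C with 9 half-log concentrations of compound (0.5% DMSO final), then stimulated 5 min with 50 ng/mL human M-CSF. Lysates captured on biotin-FK506 plates; phosphotyrosine detected by MSD electrochemiluminescence. IC50 versus DMSO, averaged from duplicate plates.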

PDGFRβ = molecular target: T4, PDGFRβ (Homo sapiens, UniProt P09619); assay: Competition binding assay, PDGFRβ Kd
T4 construct: made in house
T4 sequence (P09619 33-1106): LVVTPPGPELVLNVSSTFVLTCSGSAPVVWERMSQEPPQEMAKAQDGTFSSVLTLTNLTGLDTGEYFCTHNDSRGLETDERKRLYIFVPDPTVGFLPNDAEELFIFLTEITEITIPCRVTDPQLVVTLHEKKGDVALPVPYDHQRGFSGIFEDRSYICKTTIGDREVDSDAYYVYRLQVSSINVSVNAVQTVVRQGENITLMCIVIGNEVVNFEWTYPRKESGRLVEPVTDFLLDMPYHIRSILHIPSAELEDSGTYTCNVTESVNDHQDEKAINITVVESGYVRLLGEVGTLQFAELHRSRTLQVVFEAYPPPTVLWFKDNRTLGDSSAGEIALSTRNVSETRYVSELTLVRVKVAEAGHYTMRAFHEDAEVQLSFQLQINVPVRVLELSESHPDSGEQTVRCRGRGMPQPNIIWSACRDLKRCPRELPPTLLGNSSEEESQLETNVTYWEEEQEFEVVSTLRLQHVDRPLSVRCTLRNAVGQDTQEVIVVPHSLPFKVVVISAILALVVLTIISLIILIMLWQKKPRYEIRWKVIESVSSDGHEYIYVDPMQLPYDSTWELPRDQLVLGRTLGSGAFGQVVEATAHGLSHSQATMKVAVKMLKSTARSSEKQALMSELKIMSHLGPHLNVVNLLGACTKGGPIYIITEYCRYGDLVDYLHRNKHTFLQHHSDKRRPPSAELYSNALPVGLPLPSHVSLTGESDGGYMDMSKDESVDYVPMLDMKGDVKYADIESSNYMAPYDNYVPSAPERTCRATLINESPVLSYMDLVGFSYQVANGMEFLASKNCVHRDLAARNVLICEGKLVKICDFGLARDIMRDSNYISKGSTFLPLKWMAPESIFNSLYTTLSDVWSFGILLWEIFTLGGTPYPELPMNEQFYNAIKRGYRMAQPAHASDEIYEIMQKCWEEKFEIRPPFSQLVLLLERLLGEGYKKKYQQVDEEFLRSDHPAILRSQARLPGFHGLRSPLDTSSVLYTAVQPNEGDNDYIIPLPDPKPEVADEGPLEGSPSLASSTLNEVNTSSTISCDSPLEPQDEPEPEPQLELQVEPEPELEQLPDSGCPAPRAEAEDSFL
In short: as §1

[3] = 72 hours incubation, M-CSF 20 ng/mL
[4] = 2 h compound, human M-CSF 50 ng/mL for 5 min
[5] = HEK293 cells, M-CSF stimulated CSF1R phosphorylation, MSD

Kd (FLT3) [nM]	Kd (CSF1R [1]) [nM]	Kd (KIT) [nM]	IC50 (CSF1R [2]; [4]) [nM]	Kd (PDGFRβ) [nM]	SMILES	IC50 (M-NFS-60 cells; [3]) [nM]	Kd (FLT3; competition binding) [nM]	Kd (CSF1R [1]; competition binding) [nM]	IC50 (M-NFS-60 cells; M-NFS-60 cell proliferation) [nM]	Kd (KIT; competition binding) [nM]	IC50 (CSF1R [2]; [5]) [nM]	Kd (PDGFRβ; competition binding) [nM]
200 to 1000	5 to 20	100 to 500	50 to 200	≤ 50	O[C@H]1CCCCC1Nc1nc2ccc(Cn3cnc4ccccc43)cc2s1 (stereo in doubt) [Example 7, (1S,2S)-2-((6-((1H-benzo[d]imidazol-1-yl)methyl)benzo[d]thiazol-2-yl)amino)cyclohexanol]	400 to 1500	–	–	–	–	–	–
> 5000	5 to 20	> 2000	200 to 500	500 to 2000	O[C@@H]1CCCC[C@H]1Nc1nc2ccc(Cn3cnc4ccncc43)cc2s1 [Example 71, (1R,2R)-2-((6-((3H-imidazo[4,5-c]pyridin-3-yl)methyl)benzo[d]thiazol-2-yl)amino)cyclohexanol]	400 to 1500	–	–	–	–	–	–
–	–	–	–	–	O[C@@H]1CCCC[C@H]1Nc1nc2ccc(Cn3cnc4cc(C5=CCNCC5)ccc43)cc2s1 [Example 225, (1R,2R)-2-((6-((5-(1,2,3,6-tetrahydropyridin-4-yl)-1H-benzo[d]imidazol-1-yl)methyl)benzo[d]thiazol-2-yl)amino)cyclohexanol]	–	200 to 1000	≤ 5	400 to 1500	≤ 100	50 to 200	≤ 50
> 5000	5 to 20	> 2000	50 to 200	50 to 500	Cn1cc(-c2nccn(Cc3ccc4nc(N[C@@H]5CCCC[C@H]5O)sc4c3)c2=O)cn1 [Example 103, 1-((2-(((1R,2R)-2-hydroxycyclohexyl)amino)benzo[d]thiazol-6-yl)methyl)-3-(1-methyl-1H-pyrazol-4-yl)pyrazin-2(1H)-one]	50 to 400	–	–	–	–	–	–
1000 to 5000	≤ 5	≤ 100	≤ 50	50 to 500	O[C@@H]1CCCC[C@H]1Nc1nc2ccc(Cn3cnc4cc(F)cnc43)cc2s1 [Example 70, (1R,2R)-2-((6-((6-fluoro-3H-imidazo[4,5-b]pyridin-3-yl)methyl)benzo[d]thiazol-2-yl)amino)cyclohexanol]	50 to 400	–	–	–	–	–	–
200 to 1000	5 to 20	≤ 100	≤ 50	≤ 50	COC(=O)c1cnc2c(c1)ncn2Cc1ccc2nc(N[C@@H]3CCCC[C@H]3O)sc2c1 [Example 79, methyl 3-((2-(((1R,2R)-2-hydroxycyclohexyl)amino)benzo[d]thiazol-6-yl)methyl)-3H-imidazo[4,5-b]pyridine-6-carboxylate]	≤ 50	–	–	–	–	–	–
1000 to 5000	5 to 20	≤ 100	50 to 200	≤ 50	CN(C)C(=O)c1cnc2c(c1)ncn2Cc1ccc2nc(N[C@@H]3CCCC[C@H]3O)sc2c1 [Example 92, 3-((2-(((1R,2R)-2-hydroxycyclohexyl)amino)benzo[d]thiazol-6-yl)methyl)-N,N-dimethyl-3H-imidazo[4,5-b]pyridine-6-carboxamide]	50 to 400	–	–	–	–	–	–
1000 to 5000	20 to 50	> 2000	200 to 500	> 2000	COc1cc2ncn(Cc3ccc4nc(N[C@@H]5CCCC5O)sc4c3)c2cc1OC (stereo in doubt) [Example 20, (1R,2R)-2-((6-((5,6-dimethoxy-1H-benzo[d]imidazol-1-yl)methyl)benzo[d]thiazol-2-yl)amino)cyclopentanol]	> 1500	–	–	–	–	–	–
200 to 1000	5 to 20	> 2000	> 500	> 2000	Nc1nc2cccnc2n1Cc1ccc2nc(N[C@@H]3CCCC[C@H]3O)sc2c1 [Example 26, 3-((2-(((1R,2R)-2-hydroxycyclohexyl)amino)benzo[d]thiazol-6-yl)methyl)-3H-imidazo[4,5-b]pyridin-2-aminium acetic acid]	> 1500	–	–	–	–	–	–
200 to 1000	20 to 50	100 to 500	200 to 500	500 to 2000	COc1cc2ncn(Cc3ccc4nc(N(C)C5CCCCC5)sc4c3)c2cc1OC [Example 16, N-cyclohexyl-6-((5,6-dimethoxy-1H-benzo[d]imidazol-1-yl)methyl)-N-methylbenzo[d]thiazol-2-amine]	> 1500	–	–	–	–	–	–
1000 to 5000	5 to 20	100 to 500	50 to 200	50 to 500	O[C@H]1CCCC[C@H]1Nc1nc2ccc(Cn3cnc4ccccc43)cc2s1 (racemic) [Example 1, 2-((6-((1H-benzo[d]imidazol-1-yl)methyl)benzo[d]thiazol-2-yl)amino)cyclohexanol]	50 to 400	–	–	–	–	–	–
> 5000	> 50	> 2000	> 500	> 2000	COc1cc2ncn(Cc3ccc4nc(NC5CCN(C(C)=O)CC5)sc4c3)c2cc1OC [Example 24, 1-(4-((6-((5,6-dimethoxy-1H-benzo[d]imidazol-1-yl)methyl)benzo[d]thiazol-2-yl)amino)piperidin-1-yl)ethanone acetic acid]	> 1500	–	–	–	–	–	–
1000 to 5000	5 to 20	100 to 500	50 to 200	> 2000	COc1cc2ncn(Cc3ccc4nc(Nc5ccccc5)sc4c3)c2cc1OC [Example 22, 6-((5,6-dimethoxy-1H-benzo[d]imidazol-1-yl)methyl)-N-phenylbenzo[d]thiazol-2-amine]	400 to 1500	–	–	–	–	–	–
1000 to 5000	20 to 50	500 to 2000	200 to 500	500 to 2000	COc1cc2ncn(Cc3ccc4nc(NCc5ccccn5)sc4c3)c2cc1OC [Example 9, 6-((5,6-dimethoxy-1H-benzo[d]imidazol-1-yl)methyl)-N-(pyridin-2-ylmethyl)benzo[d]thiazol-2-amine]	> 1500	–	–	–	–	–	–
1000 to 5000	5 to 20	100 to 500	50 to 200	50 to 500	CCOc1ccccc1Nc1nc2ccc(Cn3cnc4cc(OC)c(OC)cc43)cc2s1 [Example 27, 6-((5,6-dimethoxy-1H-benzo[d]imidazol-1-yl)methyl)-N-(2-ethoxyphenyl)benzo[d]thiazol-2-amine]	50 to 400	–	–	–	–	–	–
> 5000	> 50	> 2000	200 to 500	> 2000	COc1cc2ncn(Cc3ccc4nc(NCc5ccncc5)sc4c3)c2cc1OC [Example 21, 6-((5,6-dimethoxy-1H-benzo[d]imidazol-1-yl)methyl)-N-(pyridin-4-ylmethyl)benzo[d]thiazol-2-amine]	> 1500	–	–	–	–	–	–
–	–	–	–	–	O[C@H]1CCCCC1Nc1nc2ccc(Cn3cnc4cc(F)cnc43)cc2s1 (stereo in doubt) [Example 213, (1S,2S)-2-((6-((6-fluoro-3H-imidazo[4,5-b]pyridin-3-yl)methyl)benzo[d]thiazol-2-yl)amino)cyclohexanol]	–	200 to 1000	≤ 5	50 to 400	≤ 100	50 to 200	≤ 50
200 to 1000	≤ 5	≤ 100	50 to 200	50 to 500	CC(=O)c1ccc2ncn(Cc3ccc4nc(N[C@@H]5CCCC[C@H]5O)sc4c3)c2n1 [Example 88, 1-(3-((2-(((1R,2R)-2-hydroxycyclohexyl)amino)benzo[d]thiazol-6-yl)methyl)-3H-imidazo[4,5-b]pyridin-5-yl)ethanone]	≤ 50	–	–	–	–	–	–

— patent US9938261B2, “Heterocyclic compounds and methods of use thereof” (AMBIT BIOSCIENCES CORPORATION, priority 2011, dated 2018)
